# Reference: ChEMBL document CHEMBL3860062, “Synthesis and biological evaluation of novel hydrogen sulfide releasing nicotinic acid derivatives” (Bioorg Med Chem, 2016)
# Key:
# HT-22 [1] = experiment: Neuroprotective activity against glutamate-induced neuronal cell damage in mouse HT22 cells assessed as cell survival rate at 1 uM after 24 hrs by MTT assay (reference value: 12.49 to 43.44%); assay type: functional; conditions: HT-22, 24 h, read-out: Survival
# HT-22 [2] = experiment: Neuroprotective activity against glutamate-induced neuronal cell damage in mouse HT22 cells assessed as cell survival rate at 10 uM after 24 hrs by MTT assay (reference value: 12.49 to 43.44%); assay type: functional; conditions: HT-22, 24 h, read-out: Survival
# [3] = Cytotoxicity against mouse HT22 cells assessed as cell survival rate at 100 uM after 24 hrs by MTT assay; assay type: toxicity, HT-22; conditions: read-out: Survival
# HT-22 [4] = experiment: Neuroprotective activity against glutamate-induced neuronal cell damage in mouse HT22 cells assessed as cell survival rate at 100 uM after 24 hrs by MTT assay (reference value: 12.49 to 43.44%); assay type: functional; conditions: HT-22, 24 h, read-out: Survival
# HT-22 [5] = experiment: Neuroprotective activity against glutamate-induced neuronal cell damage in mouse HT22 cells assessed as cell survival rate at 50 uM after 24 hrs by MTT assay (reference value: 12.49 to 43.44%); assay type: functional; conditions: HT-22, 24 h, read-out: Survival
# HT-22 [6] = experiment: Neuroprotective activity against glutamate-induced neuronal cell damage in mouse HT22 cells assessed as increase in cell viability at 1 to 100 uM after 24 hrs by MTT assay relative to glutamate; assay type: functional
# Mus musculus [7] = experiment: Protection against focal cerebral ischemia in ICR mouse model of […] assessed as infarct volume of […] at 100 mg/kg, ip dosed 3 hrs post reperfusion measured 48 hrs post MCAO by TTC staining based assay (reference value: 62.75%); assay type: functional
# Mus musculus [8] = experiment: Protection against focal cerebral ischemia in ICR mouse model of […] assessed as reduction in infarct volume administered ip 3 hrs post reperfusion measured 48 hrs post MCAO by TTC staining based assay; assay type: functional
# Mus musculus [9] = experiment: Protection against focal cerebral ischemia in ICR mouse model of […] assessed as infarct volume of hemisphere at 100 mg/kg, ip dosed 3 hrs post reperfusion measured 48 hrs post MCAO by TTC staining based assay (reference value: 44.98%); assay type: functional
# Mus musculus [10] = experiment: Protection against focal cerebral ischemia in ICR mouse model of […] assessed as infarct volume of striatum at 100 mg/kg, ip dosed 3 hrs post reperfusion measured 48 hrs post MCAO by TTC staining based assay (reference value: 56.18%); assay type: functional
# Rattus norvegicus = experiment: Protection against focal cerebral ischemia in Wistar rat model of […] assessed as reduction in infarction volume administered ip at 2 hrs post reperfusion measured 3 days post MCAO; assay type: functional
Compound,viability at 1 µM (HT-22 [1]) [%],viability at 10 µM (HT-22 [2]) [%],"viability at 24 h, 100 µM [3] [%]",viability at 100 µM (HT-22 [4]) [%],viability at 50 µM (HT-22 [5]) [%],fold change (FC) (HT-22 [6]),Activity (Mus musculus [7]) [%],MED (Mus musculus [8]) [mg/kg],Activity (Mus musculus [9]) [%],Activity (Mus musculus [10]) [%],MED (Rattus norvegicus) [mg/kg]
O=C(OCCCCCOc1ccc(-c2cc(=S)ss2)cc1)c1cccnc1,52.9,92.5,100,82.2,93.3,–,–,–,–,–,–
O=C(OCCCCCCCCCOc1ccc(-c2cc(=S)ss2)cc1)c1cccnc1,108,101,70.4,70.4,80.6,–,–,–,–,–,–
O=C(CNC(=O)c1cccnc1)OCCCCOc1ccc(-c2cc(=S)ss2)cc1,69.2,87.4,100,99,100,–,–,–,–,–,–
O=C(OCCOc1ccc(-c2cc(=S)ss2)cc1)c1cccnc1,57.9,80.8,100,102,91.5,–,–,–,–,–,–
O=C(N[C@@H](Cc1ccccc1)C(=O)OCCCCOc1ccc(-c2cc(=S)ss2)cc1)c1cccnc1,64.7,87.7,100,101,101,–,–,–,–,–,–
O=C(Oc1ccc(-c2cc(=S)ss2)cc1)c1cccnc1,43.3,64.2,100,78.3,82.4,–,–,–,–,–,–
O=C(OCCCCOc1ccc(-c2cc(=S)ss2)cc1)c1cccnc1,66.9,94.8,52.9,93.5,87.9,–,–,–,–,–,–
O=C(OCCCCCCOc1ccc(-c2cc(=S)ss2)cc1)c1cccnc1,82.6,83.2,100,71.3,78.2,6,38.01,100,25.93,23.04,–
O=C(OCCCCCCCCOc1ccc(-c2cc(=S)ss2)cc1)c1cccnc1,82.5,78,100,82.3,76.3,–,–,–,–,–,–
C[C@H](NC(=O)c1cccnc1)C(=O)OCCCCOc1ccc(-c2cc(=S)ss2)cc1,68.7,75.5,100,71.1,77.9,–,–,–,–,–,–
CC(C)[C@H](NC(=O)c1cccnc1)C(=O)OCCCCOc1ccc(-c2cc(=S)ss2)cc1,73.3,72.4,68,68.1,70.8,–,–,–,–,–,–
O=C(OCCCOc1ccc(-c2cc(=S)ss2)cc1)c1cccnc1,33.7,87.2,100,89.8,93.4,–,–,–,–,–,–
Oc1ccc(-c2cc(=S)ss2)cc1,33.4,52.2,–,76.4,104,–,–,–,–,–,–
NC(=O)c1cccnc1 [NIACINAMIDE],–,–,–,–,–,–,–,–,–,–,500
O=C(O)c1cccnc1 [NIACIN],56.2,58.9,–,75.3,63.8,–,–,–,–,–,–
